Experimental data published in article PMC5571287 (Antimicrobial Agents and Chemotherapy, 2017).
Read-outs that look alike come from different tables or passages of the source.

What was measured:
RSV A2 [1] = experiment: CPE assay, RSV A2 in HEp-2 cells (resazurin); type: cell-based, respiratory syncytial virus; conditions: for IC50: read-out: RSV A2 IC50; for IC90: read-out: RSV A2 IC90
RSV B WST = experiment: CPE assay, RSV B Washington in HEp-2 cells (resazurin); type: cell-based, respiratory syncytial virus
RSV A 1997/12-35 = experiment: CPE 1, resazurin 384-well CPE assay in HEp-2; type: cell-based; conditions: human respiratory syncytial virus
Protocol: (§1) For known clinical strains (RSV A 1997/12-35, 2001/2-20, 200/3-4, and Memphis 37), a 384-well-format resazurin-based CPE assay was conducted.

RSV A 2000/3-4 = experiment: CPE 1, resazurin 384-well CPE assay in HEp-2; type: cell-based; conditions: human respiratory syncytial virus
Protocol: as §1

RSV A 2001/2-20 = experiment: CPE 1, resazurin 384-well CPE assay in HEp-2; type: cell-based; conditions: human respiratory syncytial virus
Protocol: as §1

RSV A Memphis 37c = experiment: CPE 1, resazurin 384-well CPE assay in HEp-2; type: cell-based; conditions: human respiratory syncytial virus
Protocol: as §1

RSV A 1998/3-2 = experiment: CPE 2, neutral red 96-well CPE assay in HEp-2; type: cell-based; conditions: human respiratory syncytial virus
Protocol: (§2) For RSV A 2001/3-12, 1998/3-2, and USU⃥v1225, CPE was induced in HEp-2 cells for 7 days and the plates were then stained with neutral red dye for approximately 2 h. The intracellular incorporated dye was extracted in 50:50 Sorensen citrate buffer-ethanol and the absorbance read on a spectrophotometer. The optical density (OD) of test wells was converted to percentage of cell and virus controls. […] The virus inocula were ∼63 50% cell culture infectious doses (CCID50) per well for 2001/3-12, ∼40 CCID50/well for 1998/3-2, and ∼32 CCID50/well for USU\v1225. This assay was conducted in Utah State University (Logan, UT).

RSV A 2001/3-12 = experiment: CPE 2, neutral red 96-well CPE assay in HEp-2; type: cell-based; conditions: human respiratory syncytial virus
Protocol: as §2

RSV A USU\v1225 = experiment: CPE 2, neutral red 96-well CPE assay in HEp-2; type: cell-based; conditions: human respiratory syncytial virus
Protocol: as §2

[2] = biological target: minigenome construct comprising the L protein, M2-1, N, and P of RSV A2 (Human respiratory syncytial virus A, UniProt P28887); experiment: cell-based
Sequence of minigenome construct comprising the L protein, M2-1, N, and P of RSV A2 (P28887 whole entry): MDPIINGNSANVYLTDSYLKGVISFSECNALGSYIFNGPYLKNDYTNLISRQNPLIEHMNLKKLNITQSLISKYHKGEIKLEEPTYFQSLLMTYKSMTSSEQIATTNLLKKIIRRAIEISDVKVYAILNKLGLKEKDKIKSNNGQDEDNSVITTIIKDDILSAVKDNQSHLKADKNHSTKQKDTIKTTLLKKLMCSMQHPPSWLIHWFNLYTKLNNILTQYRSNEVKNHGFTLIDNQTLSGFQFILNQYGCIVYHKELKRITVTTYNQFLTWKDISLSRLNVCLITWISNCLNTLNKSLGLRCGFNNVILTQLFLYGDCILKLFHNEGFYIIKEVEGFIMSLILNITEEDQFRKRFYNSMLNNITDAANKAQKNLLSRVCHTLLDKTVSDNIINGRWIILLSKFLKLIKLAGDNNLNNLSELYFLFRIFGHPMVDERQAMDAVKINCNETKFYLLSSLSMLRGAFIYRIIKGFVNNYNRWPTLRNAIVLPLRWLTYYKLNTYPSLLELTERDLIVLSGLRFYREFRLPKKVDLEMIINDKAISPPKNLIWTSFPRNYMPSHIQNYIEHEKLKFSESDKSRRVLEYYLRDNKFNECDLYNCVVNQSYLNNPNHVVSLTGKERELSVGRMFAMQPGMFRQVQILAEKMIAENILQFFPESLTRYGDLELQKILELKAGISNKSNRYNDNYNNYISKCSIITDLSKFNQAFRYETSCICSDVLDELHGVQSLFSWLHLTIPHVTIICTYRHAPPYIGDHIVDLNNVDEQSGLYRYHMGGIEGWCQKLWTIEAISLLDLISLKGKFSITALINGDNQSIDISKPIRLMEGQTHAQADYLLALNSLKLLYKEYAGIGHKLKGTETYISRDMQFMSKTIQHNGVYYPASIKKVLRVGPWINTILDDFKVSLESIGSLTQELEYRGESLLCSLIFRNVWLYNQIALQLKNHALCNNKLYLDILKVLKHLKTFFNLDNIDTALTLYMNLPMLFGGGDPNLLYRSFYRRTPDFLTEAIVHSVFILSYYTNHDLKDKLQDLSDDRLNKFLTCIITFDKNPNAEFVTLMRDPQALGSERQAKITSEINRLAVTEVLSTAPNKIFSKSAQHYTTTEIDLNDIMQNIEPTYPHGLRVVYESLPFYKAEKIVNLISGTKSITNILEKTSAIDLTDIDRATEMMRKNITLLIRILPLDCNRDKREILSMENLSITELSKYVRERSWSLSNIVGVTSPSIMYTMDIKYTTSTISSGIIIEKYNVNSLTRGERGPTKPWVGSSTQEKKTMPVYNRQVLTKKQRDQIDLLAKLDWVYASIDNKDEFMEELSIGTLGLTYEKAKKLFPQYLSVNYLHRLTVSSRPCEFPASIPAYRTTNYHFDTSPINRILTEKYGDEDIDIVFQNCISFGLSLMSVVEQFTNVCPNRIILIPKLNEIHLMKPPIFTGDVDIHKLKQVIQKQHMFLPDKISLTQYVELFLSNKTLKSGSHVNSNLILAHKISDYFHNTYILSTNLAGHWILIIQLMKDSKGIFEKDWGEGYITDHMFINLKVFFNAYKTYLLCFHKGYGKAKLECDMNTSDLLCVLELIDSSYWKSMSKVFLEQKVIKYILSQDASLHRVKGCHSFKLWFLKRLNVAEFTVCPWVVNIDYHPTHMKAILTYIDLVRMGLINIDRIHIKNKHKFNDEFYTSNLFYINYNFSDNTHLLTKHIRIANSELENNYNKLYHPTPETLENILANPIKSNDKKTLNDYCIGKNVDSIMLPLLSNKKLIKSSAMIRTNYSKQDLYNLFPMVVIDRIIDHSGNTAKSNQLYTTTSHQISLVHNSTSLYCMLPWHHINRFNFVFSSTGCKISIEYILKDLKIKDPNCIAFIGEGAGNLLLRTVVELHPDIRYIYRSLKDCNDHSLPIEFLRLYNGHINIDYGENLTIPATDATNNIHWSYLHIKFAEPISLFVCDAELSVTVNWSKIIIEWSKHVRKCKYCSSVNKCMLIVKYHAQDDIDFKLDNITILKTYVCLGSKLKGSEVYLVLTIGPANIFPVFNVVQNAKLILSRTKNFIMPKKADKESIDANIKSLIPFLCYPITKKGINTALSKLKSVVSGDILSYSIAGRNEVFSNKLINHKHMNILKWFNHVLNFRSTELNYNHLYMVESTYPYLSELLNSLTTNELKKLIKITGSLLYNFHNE
Sequence of minigenome construct comprising the L protein, M2-1, N, and P of RSV A2 (P03421 whole entry, further chain): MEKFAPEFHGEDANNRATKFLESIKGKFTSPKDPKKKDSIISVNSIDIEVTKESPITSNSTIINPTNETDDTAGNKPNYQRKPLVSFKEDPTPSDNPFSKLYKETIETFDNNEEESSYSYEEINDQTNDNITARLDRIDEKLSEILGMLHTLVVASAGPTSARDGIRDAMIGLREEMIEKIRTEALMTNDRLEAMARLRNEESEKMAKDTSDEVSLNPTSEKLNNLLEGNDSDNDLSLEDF

[3] = Cell viability in HEp-2 cells (resazurin); conditions: human, HEp-2 cells
[4] = tested on: PC786 escape mutant (Y1631H) of RSV A2; type: cell-based, respiratory syncytial virus; conditions: for IC50: read-out: PC786 escape mutant IC50, N=3, after 6th passage; for IC50 / IC90: CPE; for IC90: read-out: PC786 escape mutant IC90, N=3; for activity on CPE of the PC786 escape mutant, in words: vs wild type
[5] = tested on: Wild type RSVA2 (vehicle control virus); experiment: CPE assay, vehicle control (wild type) RSV A2 virus; conditions: for IC50: read-out: Wild type RSVA2 IC50; for IC90: read-out: Wild type RSVA2 IC90
RSV A2 [6] = experiment: Time-of-addition assay and MOI dependency, CPE (methylene blue) in HEp-2; type: cell-based; conditions: human respiratory syncytial virus
RSV A2 [7] = experiment: RSV F protein cell-based ELISA in BEAS-2B cells, washout / nonwashout; conditions: human respiratory syncytial virus, read-out: IC50, F protein expressed on cell surfaces
Protocol: Approximately 72 h after BEAS-2B cells were seeded in 96-well plates (at 4 × 10^4/ml; 100 μl/well), the medium in the plates was removed and replaced with 200 μl of fresh LHC-8 medium. […] For nonwashout plates, the compounds and DMSO (1 μl/well) were applied immediately after infection. On day 3 postinfection, supernatant was aspirated and the cells were fixed with 4% formaldehyde (100 μl in PBS solution) for 20 min at room temperature (RT), washed three times with wash buffer (WB) (200 μl; PBS containing 0.05% Tween 20), and incubated with blocking buffer (100 μl; 5% bovine serum albumin [BSA] in wash buffer) for 1 h. […] Abcam plc, Cambridge, UK). After a washing, cells were incubated with a horseradish peroxidase (HRP)-conjugated anti-mouse IgG antibody (50 μl/well; 1:2,000, Abcam) for 1 h. Tetramethylbenzidine (TMB) substrate (50 μl) was then added after two washings with WB and one with PBS, and the reaction was stopped by the addition of aqueous sulfuric acid (2 N; 50 μl/well). The resultant signal was determined colorimetrically (OD at 450 nm [OD450] with a reference wavelength of 655 nm) in a microplate reader (Multiskan FC; Thermo Fisher Scientific). Cells were then washed, and 0.5% crystal violet solution ([…]) was applied for 30 min. […] The measured F protein signals (OD450 − OD655 readings) were corrected for cell number (OD595 readings) by dividing the OD450–655 by the OD595 readings.

in vitro = conditions: human
[8] = human respiratory syncytial virus, HEp-2
[9] = CPE, HEp-2, n = 3, added with virus infection, ALS-8112 24 h prior
[10] = human respiratory syncytial virus

Q: Which results are given for `Nc1ccn([C@@H]2O[C@@](CO)(CCl)[C@@H](O)[C@H]2F)c(=O)n1` [ALS-8112, reference compound]?
A: IC50 (RSV A2 [1]; [8]): 455 ± 16 nM; IC90 (RSV A2 [1]; [8]): 1130 nM; IC50 (RSV B WST; [8]): 647 ± 44.2 nM; IC90 (RSV B WST; [8]): 2130 nM; IC50 (RSV A 1997/12-35): 693 nM; IC50 (RSV A 2000/3-4): 515 nM; IC50 (RSV A 2001/2-20): 768 nM; IC50 (RSV A Memphis 37c): 398 nM; IC50 (RSV A 1998/3-2): 1500 nM; IC50 (RSV A 2001/3-12): 3200 nM; IC50 (RSV A USU\v1225): 880 nM; IC90 ([2]; luciferase, HEp-2, wild-type L protein): 831 nM; CC50 [3]: > 341000 nM

Q: Which results are given for `COc1ccc(CCNCCCN2C(=O)c3c(cc(N)c4[nH]c(-c5ccc(C)c([N+](=O)[O-])c5)nc34)C(C)(C)C2=O)cc1OC` [BI compound D]?
A: IC50 (RSV A2 [1]; [9]): 57.6 ± 1.53 nM; IC90 (RSV A2 [1]; [9]): > 333 nM; IC50 (RSV B WST; [9]): 47.8 ± 2.96 nM; IC90 (RSV B WST; [9]): > 1660 nM; IC50 [2]: 55.3 nM; IC90 [2]: 233 nM; IC50 [4]: 87.4 nM; IC90 [4]: 161 nM; activity on CPE of the PC786 escape mutant, in words [4]: slightly reduced; IC50 ([5]; CPE, N=3, vehicle control virus): 11.9 nM; IC90 ([5]; CPE, N=3): 79.9 nM

Q: Which IC50 (RSV A2 [1]; [8]) does the source give for `Cc1cn2nc([C@@H]3CCCCN3C(=O)c3cc(Cl)ccc3NS(C)(=O)=O)cc2nc1N1CC[C@H](N)C1` [GS-5806, reference compound] here?
A: Its IC50 is 0.45 ± 0.018 nM.

Q: And the IC90 (RSV A2 [1]; [8])?
A: The IC90 was 0.93 ± 0.098 nM.

Q: And the IC50 (RSV B WST; [8])?
A: The IC50 was 0.17 ± 0.043 nM.

Q: What about the IC90 (RSV B WST; [8]) of the same compound?
A: Its IC90 is over 126 nM.

Q: What about the IC50 (RSV A2 [6]; HEp-2, 24 h, MOI 0.02, n = 3, read-out: IC50 at treatment time 24 h postinoculation) of the same compound?
A: Its IC50 is 1.62 nM.

Q: And the IC50 (RSV A2 [6]; HEp-2, 24 h, MOI 0.1, n = 3, read-out: IC50 at treatment time 24 h postinoculation)?
A: The IC50 was 2.05 nM.

Q: What about the IC50 (RSV A2 [6]; HEp-2, 24 h, MOI 1.0, n = 3, read-out: IC50 at treatment time 24 h postinoculation) of the same compound?
A: Its IC50 is 11.7 nM.

Q: What about the IC50 (RSV A2 [6]; HEp-2, 48 h, read-out: IC50 at treatment time 48 h postinoculation, MOI 0.02, n = 3) of the same compound?
A: The IC50 was 6.46 nM.

Q: And the IC50 (RSV A2 [6]; HEp-2, 48 h, read-out: IC50 at treatment time 48 h postinoculation, MOI 0.1, n = 3)?
A: Its IC50 is over 188 nM.

Q: And the IC50 (RSV A2 [6]; HEp-2, 48 h, read-out: IC50 at treatment time 48 h postinoculation, MOI 1.0, n = 3)?
A: Its IC50 is over 188 nM.

Q: And the IC50 (RSV A2 [6]; HEp-2, 72 h, MOI 0.02, n = 3, read-out: IC50 at treatment time 72 h postinoculation)?
A: Its IC50 is over 188 nM.

Q: And the IC50 (RSV A2 [6]; HEp-2, 72 h, MOI 0.1, n = 3, read-out: IC50 at treatment time 72 h postinoculation)?
A: The IC50 was over 188 nM.

Q: And the IC50 (RSV A2 [6]; HEp-2, 72 h, MOI 1.0, n = 3, read-out: IC50 at treatment time 72 h postinoculation)?
A: Its IC50 is over 188 nM.

Q: What about the IC50 (RSV A2 [6]; HEp-2, MOI 0.02, n = 3, CPE at 144 h, read-out: IC50 at treatment time 0 h postinoculation) of the same compound?
A: The IC50 was 0.38 nM.

Q: What about the IC50 (RSV A2 [6]; HEp-2, MOI 0.1, n = 3, CPE at 144 h, read-out: IC50 at treatment time 0 h postinoculation) of the same compound?
A: The IC50 was 0.57 nM.

Q: And the IC50 (RSV A2 [6]; HEp-2, MOI 1.0, n = 3, CPE at 144 h, read-out: IC50 at treatment time 0 h postinoculation)?
A: Its IC50 is 1.05 nM.

Q: And the IC50 [4]?
A: Its IC50 is under 0.188 nM.

Q: And the IC90 [4]?
A: The IC90 was under 0.188 nM.

Q: What about the “activity on CPE of the PC786 escape mutant, in words” value [4] of the same compound?
A: Its value is “remained susceptible”.

Q: What about the IC50 [5, 10] of the same compound?
A: The IC50 was 0.0018 nM.

Q: And the IC90 [5, 10]?
A: Its IC90 is 0.0048 nM.

Q: Which results are given for `NC(=O)c1ncn([C@@H]2O[C@H](CO)[C@@H](O)[C@H]2O)n1` [Ribavirin]?
A: IC50 (RSV A2 [1]; [8]): > 16400 nM; IC90 (RSV A2 [1]; [8]): > 16400 nM; IC50 (RSV B WST; [8]): 10300 nM; IC90 (RSV B WST; [8]): > 16400 nM; IC50 (RSV A2 [7]; 2 h exposure then 24-h washout before inoculation): 253000 nM; IC50 (RSV A2 [7]; nonwashout (sustained presence of drug)): 6000 nM; CC50 (in vitro): 202000 nM

Q: What does the source list for `Cc1ccc(CCCO)c(NCc2ccc3nc(NCCCN4CCOCC4)n(Cc4nc(C)ccc4O)c3c2)c1` [TMC35315]?
A: IC50 (RSV A2 [1]; [9]): 0.78 ± 0.0093 nM; IC90 (RSV A2 [1]; [9]): 1.29 ± 0.015 nM; IC50 (RSV B WST; [9]): 0.85 ± 0.017 nM; IC90 (RSV B WST; [9]): 2.63 ± 0.19 nM
